The assay concerns the target α7 nAChR subtype (Rattus norvegicus, UniProt Q05941). Type of assay: binding.

This note sets out measurements from patent US20070191422A1 (priority 2003, published 2007).

α7 nAChR subtype, sequence (Q05941 23-502 limits assumed): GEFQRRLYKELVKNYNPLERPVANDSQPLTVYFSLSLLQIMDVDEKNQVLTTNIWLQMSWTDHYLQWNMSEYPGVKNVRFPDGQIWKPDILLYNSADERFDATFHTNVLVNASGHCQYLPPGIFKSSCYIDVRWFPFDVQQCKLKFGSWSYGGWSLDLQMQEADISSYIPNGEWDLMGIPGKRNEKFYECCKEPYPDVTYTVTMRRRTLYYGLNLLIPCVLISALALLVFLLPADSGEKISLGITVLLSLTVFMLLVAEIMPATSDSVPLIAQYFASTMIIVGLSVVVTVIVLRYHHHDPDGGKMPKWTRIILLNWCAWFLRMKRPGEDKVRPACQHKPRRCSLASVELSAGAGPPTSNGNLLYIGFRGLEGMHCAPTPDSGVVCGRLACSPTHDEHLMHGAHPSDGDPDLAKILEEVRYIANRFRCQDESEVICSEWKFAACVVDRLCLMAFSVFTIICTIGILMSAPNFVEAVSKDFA

As to ^125I-α—Bungarotoxin [^125I-α-BTX], the affinity, expressed as Kd, was 1.67 nM.

A word on the Kd: it is the constant that tells how readily two partners part at equilibrium. Higher therefore signals weaker binding.
